# Test results from US20040192652A1, “Pharmaceutical combinations and methods for the treatment of leukemia” (priority 2002, published 2004).
# Counter-ions that a name gives are not always drawn.
# Tests used:
# [1] = tested on: KBM-5 chronic myeloid leukemia cells; assay: In vivo antitumor activity (survival) in mice bearing KBM-5 cells
# Procedure: (§1) Three to five week-old ICR SCID female mice weighting 20-25 g were obtained from Taconic farms. They were acclimatized for a week prior to the experiment. The animals were maintained on a standard animals feed and drinking water ad libitum. Mice were housed in an air-conditioned room at the temperature of 22±1° C. and 50-70% humidity with a 12/12 h-light/dark cycle throughout the experiment.
# (§2) Mice were irradiated (1×250 centigray; cGy) and injected i.p. with 2×10^7 or 2,4×10^7 KBM-5 or KBM-5R tumor cells, respectively. […] In primary experiments (with KBM-5 cells) or secondary experiments (with KBM-5R cells), tumor-bearing animals were randomised (8-10 per group and treated by Troxatyl™ i.p. at 5, 10, 20, or 25 mg/kg once a day for 5 consecutive days (days 20-24). Control (untreated) mice received saline. In third experiments (with KBM-5 cells), tumor bearing animals (6 per group) were treated by one of the following schemes:
# (§3) Animals in complete remission, free of detectable tumor (negative for human DQα-gen) were considered cured.
# (§4) LTS were electively sacrificed on Day 95 in single agent experiments or on Day 100 in combination treatment experiment.
# KBM-7 cells = conditions: KBM7 cells
# Procedure: (§5) Two human CML, Ph+, p210 Bcr-Abl expressing cell lines were used, namely, KBM-5 and KBM-7. KBM-5 represents cells derived from a patient in the blastic phase of CML and is remarkable for the absence of normal c-ABL. KBM-7 has been identified to be a human near-haploid cell line.
# (§6) The cells were cultured in Iscove's modified Dulbecco's medium supplemented with 10% fetal calf serum (Invitrogen Corp., Carlsbad, Calif.) at 37° C. in atmosphere of 5% CO2 in air.
# (§7) Briefly, cells were seeded in triplicate in 96-well microtiter plates (Falcon, USA) at a concentration of 4×10^5 cells/ml. After exposure to the drug(s) for 72 h, 20 μl of MTS solution were added to each well, the plates were incubated for additional 4 h at 37° C., and absorbance at 490 nm was measured.
# KBM-5 cells = conditions: KBM5 cells
# Procedure: as §5, §6, §7
# [2] = tested on: KBM-5R chronic myeloid leukemia cells (STI-571 resistant); assay: In vivo antitumor activity (survival) in mice bearing KBM-5R cells; conditions: for ILS % / Median survival time / Rang survival time / T/C %: qd × 5; for LTS (long term survivors): qd × 5, sacrificed Day 95
# Procedure: as §1, §2, §3, §4
# [3] = KBM-5, third (combination) experiment, 50 mg/kg ip, bid × 10
# [4] = KBM-5, primary experiment, 5 mg/kg ip, qd × 5
# [5] = KBM-5, primary experiment, 10 mg/kg ip, qd × 5
# [6] = KBM-5, primary experiment, 20 mg/kg ip, qd × 5
# [7] = KBM-5, primary experiment, 25 mg/kg ip, qd × 5
# [8] = KBM-5, third (combination) experiment, 10 mg/kg ip, qd × 5
# [9] = KBM-5, third (combination) experiment, 25 mg/kg ip, qd × 5
# Procedure for KBM5-STI^R1.0 cells: (§8) In vitro growth inhibition effect of adaphostin on leukemic cells was determined by measuring MTS (CellTiter 96®Aqueous One Solution Reagent, Promega Corporation, WI) dye absorbance by living cells. Briefly, cells were seeded in triplicate in 96-well microtiter plates (Falcon, USA) at a concentration of 4×10^5 cells/ml. After exposure to the drug(s) for 72 h, 20 μl of MTS solution were added to each well, the plates were incubated for additional 4 h at 37° C., and absorbance at 490 nm was measured.
# Procedure for KBM7-STI^R1.0 cells: as §8
smiles,measurement,setting,value
"Cc1ccc(NC(=O)c2ccc(CN3CCN(C)CC3)cc2)cc1Nc1nccc(-c2cccnc2)n1 [STI-571, imatinib mesylate]",ILS %,[1]; [3],8.95%
same,Median survival time,[1]; [3],31.16 days
same,Rang survival time,[1]; [3],26 to 40 days
same,response to STI-571 exposure,KBM-7 cells,apoptosis
same,STI-571 concentration up to which cells still proliferated,KBM5-STI^R1.0 cells,up to 10 μM
same,STI-571 concentration at which proliferation was almost completely abolished,KBM7-STI^R1.0 cells,7.5 µM
same,response to STI-571 exposure,KBM-5 cells,G0/G1 cell cycle arrest
"Nc1ccn([C@@H]2CO[C@H](CO)O2)c(=O)n1 [Troxatyl ™, (−)-β-L-Dioxolane-Cytidine]",ILS %,[1]; [4],57.09%
same,Median survival time,[1]; [4],54 days
same,Rang survival time,[1]; [4],46 to 66 days
same,T/C %,[1]; [4],157.09%
same,LTS (long term survivors),"[1]; KBM-5, primary experiment, 5 mg/kg ip, qd × 5, sacrificed Day 95",1
same,ILS %,[1]; [5],45.45%
same,Median survival time,[1]; [5],50 days
same,Rang survival time,[1]; [5],44 to 66 days
same,T/C %,[1]; [5],145.45%
same,ILS %,[1]; [6],33.82%
same,Median survival time,[1]; [6],46 days
same,Rang survival time,[1]; [6],36 to 58 days
same,T/C %,[1]; [6],133.82%
same,ILS %,[1]; [7],68.73%
same,Median survival time,[1]; [7],58 days
same,Rang survival time,[1]; [7],35 to 74 days
same,T/C %,[1]; [7],168.73%
same,ILS %,[1]; [8],50.90%
same,Median survival time,[1]; [8],43.16 days
same,Rang survival time,[1]; [8],38 to 50 days
same,T/C %,[1]; [8],150.9%
same,ILS %,[1]; [9],71.33%
same,Median survival time,[1]; [9],49 days
same,Rang survival time,[1]; [9],40 to 56 days
same,T/C %,[1]; [9],171.33%
same,ILS %,[2]; 5 mg/kg ip,13.93%
same,Median survival time,[2]; 5 mg/kg ip,37.142 days
same,Rang survival time,[2]; 5 mg/kg ip,36 to 50 days
same,T/C %,[2]; 5 mg/kg ip,113.93%
same,LTS (long term survivors),[2]; 5 mg/kg ip,2
same,ILS %,[2]; 10 mg/kg ip,50.64%
same,Median survival time,[2]; 10 mg/kg ip,49.11 days
same,Rang survival time,[2]; 10 mg/kg ip,36 to 69 days
same,T/C %,[2]; 10 mg/kg ip,150.64%
same,ILS %,[2]; 20 mg/kg ip,56.84%
same,Median survival time,[2]; 20 mg/kg ip,51.13 days
same,Rang survival time,[2]; 20 mg/kg ip,37 to 69 days
same,T/C %,[2]; 20 mg/kg ip,156.84%
same,ILS %,[2]; 25 mg/kg ip,54.66%
same,Median survival time,[2]; 25 mg/kg ip,50.42 days
same,Rang survival time,[2]; 25 mg/kg ip,35 to 69 days
same,T/C %,[2]; 25 mg/kg ip,154.66%
same,LTS (long term survivors),[2]; 25 mg/kg ip,1
